The results in this text go back to US20230089073A1 (Carmot Therapeutics, Inc., priority 2021, published 2023).

Test [1] deals with T1, human GLP-1 receptor (Homo sapiens, UniProt P43220).
T1 construct: expressed in transfected cells
The experiment in a line: GLP-1R cAMP Assay. Type of test: cell-based. Particulars: cAMP accumulation in CHO cells stably overexpressing the human GLP-1 receptor; 30 min treatment; HitHunter cAMP kit; read-out: EC50. In a few lines:
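Luminescent enzyme-complementation detection of cAMP, read after cell lysis and overnight incubation, with dose-response curve fitting. Stimulation lasted 30 min, using 20-point triplicate dosing on CHO cells (10,000 per well) stably overexpressing human GLP-1R.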
On the technique in general: Changes in cAMP serve as a functional read-out for many G protein-coupled receptors.

In test [2] the test system is cynomolgus monkeys. The experiment in a line: Intravenous Glucose Tolerance Test (IVGTT) in Cynomolgus Monkeys. Type of test: in vivo, cynomolgus monkeys (Macaca fascicularis). Particulars: test article intravenous bolus 1-6 minutes prior to IV glucose 0.5 g/kg, plasma insulin 0-60 minutes, FIG. 1. The procedure: Intravenous Glucose Tolerance Test (IVGTT) in Cynomolgus Monkeys
Aged ([…]) cynomolgus monkeys (Macaca fascicularis; N=4-5/test article) were fasted overnight and anesthetized with ketamine prior to the intravenous glucose tolerance test (IVGTT). The test articles were formulated at 6 mg/mL in vehicle (5% polyethylene glycol 400: 95% (12% (w/v) sulfobutylether-β-cyclodextrin in deionized water) (v/v)]) and administered by intravenous bolus into a peripheral vein 1-6 minutes prior to the IVGTT. The IVGTT was initiated by administration of an IV bolus of glucose (0.5 g/kg as a 50% glucose solution). Blood samples were collected from a peripheral vein 0, 1, 3, 5, 10, 20, 40 and 60 minutes upon completion of the IV bolus glucose injection. The blood samples were collected directly into potassium ethylene diamine tetra-acetic acid tubes and plasma separated by centrifugation at 2,500 g for 10 minutes within 30 minutes of collection. The plasma from all time points was analyzed for insulin concentrations ([…]) using a Cobas e411 Immunology analyzer. Insulin area-under-the-curve (AUC) was calculated using GraphPad Prism software (v 9).

Broadly, the EC50 is the concentration giving half of the maximal effect.

T1 sequence (P43220 24-463): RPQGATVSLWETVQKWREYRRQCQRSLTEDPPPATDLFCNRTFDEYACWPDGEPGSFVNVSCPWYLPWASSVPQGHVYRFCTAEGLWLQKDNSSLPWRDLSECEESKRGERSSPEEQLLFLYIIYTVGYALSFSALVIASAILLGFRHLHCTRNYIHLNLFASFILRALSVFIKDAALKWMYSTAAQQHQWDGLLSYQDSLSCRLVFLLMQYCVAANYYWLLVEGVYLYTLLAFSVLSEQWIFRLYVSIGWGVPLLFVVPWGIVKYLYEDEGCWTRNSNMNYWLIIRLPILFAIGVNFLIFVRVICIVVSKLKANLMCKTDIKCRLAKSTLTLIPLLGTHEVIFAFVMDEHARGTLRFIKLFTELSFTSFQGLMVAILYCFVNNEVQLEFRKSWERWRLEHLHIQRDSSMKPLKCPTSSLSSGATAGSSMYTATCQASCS

Turning to `C[C@H]1C[C@@H](Oc2ccnc(COc3ccc(C#N)cc3F)n2)CCN1Cc1nc2ccc(C(=O)O)cc2n1C[C@@H]1CCO1` [Example 313, 2-(((2S,4S)-4-((2-((4-Cyano-2-fluorophenoxy)methyl)pyrimidin-4-yl)oxy)-2-methylpiperidin-1-yl)methyl)-1-(((S)-oxetan-2-yl)methyl)-1H-benzo[d]imidazole-6-carboxylic acid], the EC50 in test [1] was < 50 nM. For the same molecule, the “insulin AUC (insulin secretion)” value in test [2] is reported as “substantial increase”.

As to `C[C@H]1C[C@@H](Oc2ccnc(COc3ccc(F)cc3C#N)n2)CCN1Cc1nc2ccc(C(=O)O)cc2n1C[C@@H]1CCO1` [Example 355, 2-(((2S,4S)-4-((2-((2-cyano-4-fluorophenoxy)methyl)pyrimidin-4-yl)oxy)-2-methylpiperidin-1-yl)methyl)-1-(((S)-oxetan-2-yl)methyl)-1H-benzo[d]imidazole-6-carboxylic acid], in test [1], the EC50 is < 50 nM. Further, in test [2], the “insulin AUC (insulin secretion)” value is recorded as “substantial increase”.
